Results from patent publication US20210198269A1, “INHIBITORS OF GLUCOSE TRANSPORTERS (GLUTs)” (LEAD DISCOVERY CENTER GMBH, priority 2018, published 2021).

Columns and labels:
Assay type in all cases: cell-based
[1] = biological target: T1, GLUT1 (Homo sapiens, UniProt P11166); assay: GLUT1 transporter activity assay (2-DG uptake) in DLD1 cells; settings: DLD1 cell line; read-out: GLUT1 inhibitory activity (IC50)
T1 construct: host or cells: DLD-1 (DLD1) cells
T1 sequence (P11166 1-492): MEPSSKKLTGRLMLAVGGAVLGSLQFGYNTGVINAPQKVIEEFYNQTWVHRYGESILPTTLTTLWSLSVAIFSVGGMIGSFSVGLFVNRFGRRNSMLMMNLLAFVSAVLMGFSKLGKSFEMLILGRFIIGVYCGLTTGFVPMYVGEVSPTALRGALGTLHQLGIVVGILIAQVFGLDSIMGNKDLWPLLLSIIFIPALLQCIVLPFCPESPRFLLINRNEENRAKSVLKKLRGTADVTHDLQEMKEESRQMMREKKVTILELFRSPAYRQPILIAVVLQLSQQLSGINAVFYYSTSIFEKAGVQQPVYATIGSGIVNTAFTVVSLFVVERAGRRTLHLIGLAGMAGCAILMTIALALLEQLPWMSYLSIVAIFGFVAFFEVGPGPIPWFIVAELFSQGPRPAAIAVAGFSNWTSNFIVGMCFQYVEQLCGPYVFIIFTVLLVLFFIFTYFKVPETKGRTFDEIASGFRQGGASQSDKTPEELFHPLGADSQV
Source text: (§1) GLUT 1, 2, 3 and 4 Transporter Activity Assays
(§2) Assays were based on the specificity assays reported by Kapoor et al., Proceedings of the National Academy of Sciences 2016, 113 (17) 4711-4716. For GLUT1, GLUT2, GLUT3 and GLUT4 specificity testing DLD1, CHO-hGLUT2, DLD-1-GLUT1−/− and CHO-hGLUT4 cell lines were used.
(§3) Assay protocols for 2-deoxy-Glucose (2-DG) Uptake Assay with DLD1 or DLD1-Glut1(−/−) cells or 7,000 CHOK1-SLC2A4 cells lines:
(§4) 14,000 DLD1 or DLD1-Glut1(−/−) cells or 7,000 CHOK1-SLC2A4 cells were seeded in black, clear bottom 384-well plates in glucose- and phenolred-free RPMI1640 medium supplemented with 1% FCS and 2 mM L-glutamine and allowed to attach overnight. Next day, cells were washed and incubated with compounds or DMSO and 1 mM 2-DG in glucose- and phenolred-free RPMI1640 medium for 30 min. Cells were then washed and lysed in 0.06 M HCl and 1% CHAPS for 15 min at 65° C. The amount of 2-DG in the lysate was determined by means of enzyme-coupled assay. For this 16 U/mL glucose-6-phosphate dehydrogenase, 0.2 U/mL diaphorase, 0.1 mM NADP^+ and 10 μM resazurin were added to the lysates. Resorufin fluorescence was determined as a measure of 2-DG uptake at ex/em 535/590 nm with a Victor Multilabel plate reader (Perkin Elmer). Blank values were subtracted from all readings and values were normalized to the DMSO control.

[2] = biological target: T2, GLUT2 (Homo sapiens, UniProt P11168); assay: GLUT2 transporter activity assay in CHO-hGLUT2 cells (indirect, intracellular ATP levels); settings: CHO-hGLUT2 cell line; read-out: GLUT2 inhibitory activity (IC50)
T2 sequence (P11168 1-524): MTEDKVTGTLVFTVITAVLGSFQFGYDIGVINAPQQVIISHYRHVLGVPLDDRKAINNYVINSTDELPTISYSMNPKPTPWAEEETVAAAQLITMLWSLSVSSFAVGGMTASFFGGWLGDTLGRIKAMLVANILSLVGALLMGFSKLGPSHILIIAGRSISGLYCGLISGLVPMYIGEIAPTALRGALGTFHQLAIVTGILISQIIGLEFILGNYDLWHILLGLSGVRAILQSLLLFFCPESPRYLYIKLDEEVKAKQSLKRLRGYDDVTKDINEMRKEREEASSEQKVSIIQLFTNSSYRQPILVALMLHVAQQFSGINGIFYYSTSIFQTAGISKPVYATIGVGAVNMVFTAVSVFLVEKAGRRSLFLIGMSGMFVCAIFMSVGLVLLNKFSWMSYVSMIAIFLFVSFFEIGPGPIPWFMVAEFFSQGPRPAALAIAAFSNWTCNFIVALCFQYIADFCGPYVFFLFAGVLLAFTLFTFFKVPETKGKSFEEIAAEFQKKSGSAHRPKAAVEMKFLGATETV
Source text: as §1, §2
Example 8-3: Indirect Measurement of GLUT2 (SLC2A2) Activity by Quantification of Intracellular ATP Levels
A combination of small-molecule inhibitors of mitochondrial electron transport chain and glucose catabolism synergistically suppress ATP production and impair cellular viability (Ulanovskaya et al., 2008, 2011; Liu, et al. 2001). We therefore used CHOK1 cells overexpressing SLC2A2 (CHOK1-SLC2A2) in combination with an oxidative phosphorylation inhibitor (Rotenon) to identify GLUT2 inhibitors. CHOK1-SLC2A2 cells were purchased from creative biogene (catNo: CSC-SC014484) and maintained in RPMI1640 supplemented with 10% FBS and 2 mM L-Glutamine. For the Glut2-ATP-Assay, 7,500 cells were seeded in black, clear bottom 384-well plates directly in glucose- and phenolred-free RPMI1640 medium supplemented with 1% FCS and 2 mM L-glutamine and cultured overnight to reduce intracellular ATP levels. Next day, cells were washed and incubated with […] and compounds or DMSO and 2.5 mM fructose in glucose- and phenolred-free RPMI1640 medium for 40 min. The CellTiter-Glo® Luminescence Viability Assay from Promega was used to measure ATP levels. Luminescence was measured with a Victor Multilabel plate reader (Perkin Elmer). Blank values were subtracted from all readings and values were normalized to the DMSO control.

[3] = biological target: T3, GLUT3 (Homo sapiens, UniProt P11169); assay: GLUT3 transporter activity assay (2-DG uptake) in DLD-1-GLUT1-/- cells; settings: DLD-1-GLUT1-/- cell line; read-out: GLUT3 inhibitory activity (IC50)
T3 construct: host or cells: DLD-1-GLUT1(-/-) cells
T3 sequence (P11169 1-496): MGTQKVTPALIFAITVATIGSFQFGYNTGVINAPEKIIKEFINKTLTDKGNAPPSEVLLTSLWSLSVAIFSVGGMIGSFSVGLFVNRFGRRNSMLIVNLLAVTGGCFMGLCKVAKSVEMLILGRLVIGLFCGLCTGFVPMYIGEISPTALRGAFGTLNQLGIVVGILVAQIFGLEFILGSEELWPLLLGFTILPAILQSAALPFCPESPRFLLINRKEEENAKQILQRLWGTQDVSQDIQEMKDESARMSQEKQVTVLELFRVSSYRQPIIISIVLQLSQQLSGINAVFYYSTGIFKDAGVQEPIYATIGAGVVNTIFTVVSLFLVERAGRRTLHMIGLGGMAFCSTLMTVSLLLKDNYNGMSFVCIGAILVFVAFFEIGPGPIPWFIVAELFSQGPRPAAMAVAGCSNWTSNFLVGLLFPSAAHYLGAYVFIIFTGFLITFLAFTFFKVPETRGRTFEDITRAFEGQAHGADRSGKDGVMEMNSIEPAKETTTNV
Source text: as §1, §2, §3, §4

[4] = biological target: T4, GLUT4 (Homo sapiens, UniProt P14672); assay: GLUT4 transporter activity assay (2-DG uptake) in CHO-hGLUT4 cells; settings: CHO-hGLUT4 cell line; read-out: GLUT4 inhibitory activity (IC50)
T4 sequence (P14672 1-509): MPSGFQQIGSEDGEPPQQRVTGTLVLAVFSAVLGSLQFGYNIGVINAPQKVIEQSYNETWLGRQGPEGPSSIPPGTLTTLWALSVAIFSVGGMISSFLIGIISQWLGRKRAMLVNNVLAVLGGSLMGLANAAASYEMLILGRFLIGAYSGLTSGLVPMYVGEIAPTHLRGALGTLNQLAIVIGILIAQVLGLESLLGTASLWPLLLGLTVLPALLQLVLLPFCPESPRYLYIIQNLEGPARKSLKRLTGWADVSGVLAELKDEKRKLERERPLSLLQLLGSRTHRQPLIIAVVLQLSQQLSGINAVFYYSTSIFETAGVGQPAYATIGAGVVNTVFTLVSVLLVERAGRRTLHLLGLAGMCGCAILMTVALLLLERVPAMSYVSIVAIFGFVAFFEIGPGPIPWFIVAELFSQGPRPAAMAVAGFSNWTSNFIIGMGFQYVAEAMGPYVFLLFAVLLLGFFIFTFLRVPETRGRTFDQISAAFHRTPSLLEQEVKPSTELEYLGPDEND
Description: CHOK1-SLC2A4 cells were generated by transfection of CHOK1 cells with pCMV6-Entry-GLUT4 (Origene #SC125240) using Lipofectamin2000 according to the supplier's instructions. Briefly, 1.5E5 cells/well CHOK1 cells were seeded in 6-well cell culture plates. After overnight incubation, DNA-lipid complexes (2 μg plasmid DNA, DNA:lipid ratio 1:10) were prepared in OptiMEM and then added to the cells. After 5 days incubation, 800 μg G418 was added to the culture medium to generate a stable polyclone. For monoclone selection, single cells were re-plated in 96-well plates, expanded and selected by transgene overexpression and functional performance.
as §1, §2, §3, §4

Row | SMILES | IC50 [1] [µM] | IC50 [2] [µM] | IC50 [3] [µM] | IC50 [4] [µM]
1 | Cc1ccc(CCNC(=O)c2cccc(N3C(=O)NC4CC3(C)Oc3c(OCc5ccccc5)cccc34)c2)cc1 (stereo not drawn) [Compound A01, 3-(10-(Benzyloxy)-2-methyl-4-oxo-5,6-dihydro-2H-2,6-methanobenzo[g][1,3,5]oxadiazocin-3(4H)-yl)-N-(4-methylphenethyl)benzamide] | ≤ 0.3 | 10 to 25 | ≤ 0.3 | 10 to 25
2 | Cc1ccc(CCNC(=O)c2cccc(N3C(=O)NC4CC3(C)Oc3c(OCc5cccnc5)cccc34)c2)cc1 (stereo not drawn) [Compound A10, 3-(2-Methyl-4-oxo-10-(pyridin-3-ylmethoxy)-5,6-dihydro-2H-2,6-methanobenzo[g][1,3,5]oxadiazocin-3(4H)-yl)-N-(4-methylphenethyl)benzamide] | ≤ 0.3 | 4 to 10 | 0.3 to 1 | 4 to 10
3 | Cc1ccc(CCNC(=O)c2cccc(N3C(=O)NC4CC3(C)Oc3c(OCc5ccccn5)cccc34)c2)cc1 (stereo not drawn) [Compound A11, 3-(2-Methyl-4-oxo-10-(pyridin-2-ylmethoxy)-5,6-dihydro-2H-2,6-methanobenzo[g][1,3,5]oxadiazocin-3(4H)-yl)-N-(4-methylphenethyl)benzamide] | ≤ 0.3 | 4 to 10 | ≤ 0.3 | 1 to 4
4 | Cc1ccc(CCNC(=O)c2cccc(N3C(=O)NC4CC3(C)Oc3c(OCc5c(C)noc5C)cccc34)c2)cc1 (stereo not drawn) [Compound A15, 3-(10-((3,5-Dimethylisoxazol-4-yl)methoxy)-2-methyl-4-oxo-5,6-dihydro-2H-2,6-methanobenzo[g][1,3,5]oxadiazocin-3(4H)-yl)-N-(4-methylphenethyl)benzamide] | 0.3 to 1 | 10 to 25 | 0.3 to 1 | 4 to 10
5 | Cc1ccc(CCNC(=O)c2cccc(N3C(=O)NC4CC3(C)Oc3c(OCc5nccn5C)cccc34)c2)cc1 (stereo not drawn) [Compound A16, 3-(2-Methyl-10-((1-methyl-1H-imidazol-2-yl)methoxy)-4-oxo-5,6-dihydro-2H-2,6-methanobenzo[g][1,3,5]oxadiazocin-3(4H)-yl)-N-(4-methylphenethyl)benzamide] | 1 to 4 | > 25 | – | > 25
6 | CC12CC(NC(=O)N1c1cccc(C(=O)NCCOc3ccccc3)c1)c1cccc(OCc3ccccc3)c1O2 (stereo not drawn) [Compound A21, 3-(10-(benzyloxy)-2-methyl-4-oxo-5,6-dihydro-2H-2,6-methanobenzo[g][1,3,5]oxadiazocin-3(4H)-yl)-N-(2-phenoxyethyl)benzamide] | 1 to 4 | > 25 | 1 to 4 | 10 to 25
7 | Cc1ccc(CCN(C)C(=O)c2cccc(N3C(=O)NC4CC3(C)Oc3c(OCc5ccccc5)cccc34)c2)cc1 (stereo not drawn) [Compound A23, 3-(10-(benzyloxy)-2-methyl-4-oxo-5,6-dihydro-2H-2,6-methanobenzo[g][1,3,5]oxadiazocin-3(4H)-yl)-N-methyl-N-(4-methylphenethyl)benzamide] | 0.3 to 1 | > 25 | 0.3 to 1 | 4 to 10
8 | CC12CC(NC(=O)N1c1cccc(C(=O)NCCCc3ccccc3)c1)c1cccc(OCc3ccccc3)c1O2 (stereo not drawn) [Compound A33, 3-(10-(benzyloxy)-2-methyl-4-oxo-5,6-dihydro-2H-2,6-methanobenzo[g][1,3,5]oxadiazocin-3(4H)-yl)-N-(3-phenylpropyl)benzamide] | 0.3 to 1 | > 25 | 0.3 to 1 | 1 to 4
9 | Cc1ccc(OCCNC(=O)c2cccc(N3C(=O)NC4CC3(C)Oc3c(OCc5ccccc5)cccc34)c2)cc1 (stereo not drawn) [Compound A35, 3-(10-(benzyloxy)-2-methyl-4-oxo-5,6-dihydro-2H-2,6-methanobenzo[g][1,3,5]oxadiazocin-3(4H)-yl)-N-(2-(4-methylphenoxy)ethyl)benzamide] | 0.3 to 1 | > 25 | 0.3 to 1 | 10 to 25
10 | CC12CC(NC(=O)N1c1cccc(C(=O)NCCc3ccccc3)c1)c1cccc(OCc3ccccc3)c1O2 (stereo not drawn) [Compound A36, 3-(10-(benzyloxy)-2-methyl-4-oxo-5,6-dihydro-2H-2,6-methanobenzo[g][1,3,5]oxadiazocin-3(4H)-yl)-N-(phenethyl)benzamide] | 0.3 to 1 | > 25 | 0.3 to 1 | 4 to 10
